We go through 18 compounds from US20040176431A1, “Antiproliferative 2-(sulfo-phenyl)-aminothiazole derivatives and pharmaceutical compositions, and methods for their use” (Pfizer, Inc., priority 2003, published 2004).

One experiment relates to HCT-116 cells. Briefly: Inhibition of cell growth (MTT tetrazolium salt assay). It counts as cell-based. The note with it: Homo sapiens; for IC50: read-out: HCT116 IC50; for IC90: read-out: HCT116 IC90. How it is done: Inhibition of cell growth was measured using the tetrazolium salt assay, which is based on the ability of viable cells to reduce 3-(4,5-dimethylthiazol-2-yl)-2,5-[2H]-diphenyltetrazolium bromide (MTT) to formazan (Mosmann, J. Immunol. Meth., 65, 55-63 (1983)). The water-insoluble purple formazan product was then detected spectrophotometrically. HCT-116 cells were grown in 96-well plates. Cells were plated in the appropriate medium at a volume of 135 μl/well in either McCoy's 5A Medium. Plates were incubated for four hours before addition of inhibitor compounds. Different concentrations of inhibitor compounds were added in 0.5% (v/v) dimethylsulfoxide (15 μL/well), and cells were incubated at 37° C. (5% CO2) for four to six days (depending on cell type). At the end of the incubation, MTT was added to a final concentration of 0.2 mg/mL, and cells were incubated for 4 hours more at 37° C. After centrifugation of the plates and removal of medium, the absorbance of the formazan (solubilized in dimethylsulfoxide) was measured at 540 nm. […] All results were compared to control cells treated only with 0.5% (v/v) dimethylsulfoxide.
In general terms: Tetrazolium dyes change colour on reduction, which living cells bring about.

Another experiment deals with T1, CDK4/cyclin D3 (Homo sapiens, UniProt P11802).
T1 construct: made in house; host or cells: insect cells (baculovirus co-infection)
T1 sequence (P11802 whole entry): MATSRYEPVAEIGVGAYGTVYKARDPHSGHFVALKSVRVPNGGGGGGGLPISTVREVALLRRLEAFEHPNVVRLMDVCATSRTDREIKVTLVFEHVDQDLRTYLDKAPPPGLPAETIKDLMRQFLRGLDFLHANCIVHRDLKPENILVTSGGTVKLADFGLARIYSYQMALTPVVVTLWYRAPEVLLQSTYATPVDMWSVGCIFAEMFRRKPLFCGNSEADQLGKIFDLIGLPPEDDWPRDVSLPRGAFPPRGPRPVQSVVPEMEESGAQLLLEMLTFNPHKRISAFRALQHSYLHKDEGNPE
T1 sequence (P30281 1-264 partner limits assumed): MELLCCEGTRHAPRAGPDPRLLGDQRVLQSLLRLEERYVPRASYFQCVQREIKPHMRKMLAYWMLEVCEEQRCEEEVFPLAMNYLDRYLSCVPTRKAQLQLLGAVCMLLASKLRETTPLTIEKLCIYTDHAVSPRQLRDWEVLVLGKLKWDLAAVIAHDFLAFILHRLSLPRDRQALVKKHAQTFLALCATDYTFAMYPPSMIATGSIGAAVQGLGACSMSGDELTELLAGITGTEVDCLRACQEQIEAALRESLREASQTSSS
Briefly: Inhibition of CDK4/Cyclin D retinoblastoma kinase activity. The class given is biochemical. The settings on record: apparent Ki, Rb fragment substrate. In short, it runs like this:
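Human CDK4 with truncated cyclin D3 (1-264) from baculovirus-infected insect cells, 5 nM, phosphorylating His-tagged Rb fragment (386-928) with 25 μM [32P/33P]ATP in pH 7.4 HEPES/MgCl2, 2% DMSO, 30° C., 20 min (60 min for tight binders). Filter capture, phosphorimager; apparent Ki from competitive or tight-binding competitive fits.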

For a further experiment, the target named is T2, CDK2/cyclin A (Homo sapiens, UniProt P24941).
T2 construct: made in house; host or cells: CDK2: insect cells (baculovirus); cyclin A: E. coli, then limited proteolysis
Briefly: Inhibition of CDK2/Cyclin A retinoblastoma kinase activity. The note with it: apparent Ki, Rb fragment substrate. It counts as biochemical. Here is the method:
Cyclin-dependent kinase activity was measured by quantifying the enzyme-catalyzed, time-dependent incorporation of radioactive phosphate from [^32P]ATP or [^33P]ATP into a protein substrate. Unless noted otherwise, assays were performed in 96-well plates in a total volume of 50 μL, in the presence of 10 mM HEPES (N-[2-hydroxyethyl]piperazine-N′-[2-ethanesulfonic acid]) (pH 7.4), 10 mM MgCl2, 25 μM adenosine triphosphate (ATP), 1 mg/mL ovalbumin, 5 μg/mL leupeptin, 1 mM dithiothreitol, 10 mM β-glycerophosphate, 0.1 mM sodium vanadate, 1 mM sodium fluoride, 2.5 mM ethylene glycol-bis(β-aminoethyl ether)-N,N,N′N′-tetraacetic acid (EGTA), 2% (v/v) dimethylsulfoxide, and 0.03-0.4 μCi [^32/33P]ATP per reaction. Reactions were initiated with enzyme, incubated at 30° C., and terminated after 20 minutes by the addition of ethylenediaminetetraacetic acid (EDTA) to 250 mM. The phosphorylated substrate was then captured on a nitrocellulose or phosphocellulose membrane using a 96-well filtration manifold, and unincorporated radioactivity was removed by repeated washing with 0.85% phosphoric acid. Radioactivity was quantified by exposing the dried membranes to a phosphorimager.
Inhibition was measured relative to control wells that contained all reaction components including 2% (v/v) DMSO but no compound, after subtraction of background radioactivity measured in the absence of enzyme. Apparent Ki values of discrete compounds were measured by assaying enzyme activity in the presence of different inhibitor compound concentrations and subtracting the background radioactivity measured in the absence of enzyme. The kinetic parameters (kcat, Km for ATP) were measured for each enzyme under the usual assay conditions by determining the dependence of initial rates on ATP concentration. Inhibition data were fit to an equation for competitive inhibition using Kaleidagraph (Synergy Software), or were fit to an equation for competitive tight-binding inhibition using the software KineTic (BioKin, Ltd.).
CDK2 was purified using published methodology (Rosenblatt et al., J. Mol. Biol., 230, 1317-1319 (1993)) from insect cells that had been infected with a baculovirus expression vector. Cyclin A was purified from E. coli cells expressing full-length recombinant cyclin A, and a truncated cyclin A construct was generated by limited proteolysis and purified as described previously (Jeffrey et al., Nature, 376, 313-320 (1995)). A complex of CDK2 and proteolyzed cyclin A was prepared and purified by gel filtration. The substrate for this assay was the same Rb substrate fragment used for the CDK4 assays, and the methodology of the CDK2/delta cyclin A and the CDK4/delta cyclin D3 assays was essentially the same, except that CDK2 was present at 10 nM or 19 nM. The duration of the assay was 60 or 75 minutes, during which the time-dependence of product formation was linear and initial rate conditions were met.

Turning to `Nc1nc(Nc2ccc(S(=O)(=O)NCC3CCCCN3)cc2)sc1C(=O)c1c(F)cccc1F` (centres unmarked) [D(2), 4-[4-Amino-5-(2,6-difluoro-benzoyl)-thiazol-2-ylamino]-N-piperidin-2-ylmethyl-benzenesulfonamide], the 50% inhibitory concentration (IC50) in the experiment with HCT-116 cells came to 4000 nM. Besides, the IC90 in the experiment with HCT-116 cells was 9200 nM. Also, the values for the Ki at CDK4/cyclin D3 and at CDK2/cyclin A were 20 nM and 45 nM, respectively.

Regarding `Nc1nc(Nc2ccc(S(=O)(=O)NCCCCO)cc2)sc1C(=O)c1c(F)cccc1F` [Example A(5), 4-[4-Amino-5-(2,6-difluoro-benzoyl)-thiazol-2-ylamino]-N-(4-hydroxy-butyl)-benzenesulfonamide], in the experiment on HCT-116 cells, the concentration for half-maximal inhibition (IC50) was determined as 1300 nM and the IC90 turned out to be 3000 nM. In addition, on CDK4/cyclin D3, the Ki was 24 nM. The Ki at CDK2/cyclin A amounted to 5.7 nM.

`Nc1nc(Nc2ccc(S(=O)(=O)NCCCCCO)cc2)sc1C(=O)c1c(F)cccc1F` [A(28), 4-[4-Amino-5-(2,6-difluoro-benzoyl)-thiazol-2-ylamino]-N-(5-hydroxy-pentyl)-benzenesulfonamide]: in the experiment with HCT-116 cells, the IC50 was 1200 nM. The IC90 with HCT-116 cells is 2800 nM. In addition, the Ki at CDK4/cyclin D3 was 12 nM; at CDK2/cyclin A, 2.6 nM.

`Cc1ccc(CCNS(=O)(=O)c2ccc(Nc3nc(N)c(C(=O)c4c(F)cccc4F)s3)cc2)cc1` [Example A(18), 4-[4-Amino-5-(2,6-difluoro-benzoyl)-thiazol-2-ylamino]-N-(2-p-tolyl-ethyl)-benzenesulfonamide]: in the experiment on HCT-116 cells, the IC50 was determined as 1800 nM and the IC90 was found to be 3700 nM. Further, the Ki on CDK4/cyclin D3 worked out at 24 nM. In addition, on CDK2/cyclin A, the Ki came out at 5.8 nM.

Regarding `Cc1csc(NS(=O)(=O)c2ccc(Nc3nc(N)c(C(=O)c4c(F)cccc4F)s3)cc2)n1` [E(1), 4-[4-Amino-5-(2,6-difluoro-benzoyl)-thiazol-2-ylamino]-N-(4-methyl-thiazol-2-yl)-benzenesulfonamide], the concentration for half-maximal inhibition (IC50) in the experiment with HCT-116 cells turned out to be 7000 nM. In the experiment on HCT-116 cells, the IC90 is 17000 nM. In addition, the Ki on CDK4/cyclin D3 amounted to 42 nM; at CDK2/cyclin A, 15 nM.

Turning to `Nc1nc(Nc2ccc(S(=O)(=O)NC3CCNCC3)cc2)sc1C(=O)c1c(F)cccc1F` [BB(1), 4-[4-Amino-5-(2,6-difluoro-benzoyl)-thiazol-2-ylamino]-N-piperidin-4-yl-benzenesulfonamide], in the experiment on HCT-116 cells, the IC50 came out at 22000 nM. In addition, the IC90 in the experiment on HCT-116 cells was above 50000 nM. Also, the Ki on CDK4/cyclin D3 and at CDK2/cyclin A was 13 nM each time.

For `Nc1nc(Nc2ccc(SCCO)cc2)sc1C(=O)c1c(Cl)cccc1Cl` [Y(2), 4-Amino-5-(2,6-dichlorobenzoyl)-2-[4-(2-hydroxy-ethylthio)-phenylamino]-thiazole], in the experiment on HCT-116 cells, the 50% inhibitory concentration (IC50) was 3900 nM and the concentration for an effect of 90% (IC90) turned out to be 13000 nM. For the same compound, at CDK4/cyclin D3, the Ki worked out at 7.6 nM. The Ki on CDK2/cyclin A is 140 nM.

In the case of `Cc1ccsc1C(=O)c1sc(Nc2ccc(S(N)(=O)=O)cc2)nc1N` [C(48)*, reference compound], the concentration for half-maximal inhibition (IC50) in the experiment with HCT-116 cells was 340 nM. Further, the Ki on CDK4/cyclin D3 amounted to 19.1 nM; at CDK2/cyclin A, 11 nM.

On to `Nc1nc(Nc2ccc(S(=O)(=O)NCCO)cc2)sc1C(=O)c1c(F)cccc1F` [Example A(4), 4-[4-Amino-5-(2,6-difluoro-benzoyl)-thiazol-2-ylamino]-N-(2-hydroxy-ethyl)-benzenesulfonamide], for which the IC50 in the experiment on HCT-116 cells was 1000 nM. The concentration for an effect of 90% (IC90) with HCT-116 cells came to 2800 nM. The values for the Ki on CDK4/cyclin D3 and on CDK2/cyclin A were 28 nM and 4.5 nM, respectively.

Consider `Nc1nc(Nc2ccc(S(=O)(=O)NCCOCCO)cc2)sc1C(=O)c1c(F)cccc1F` [Example A(6), 4-[4-Amino-5-(2,6-difluoro-benzoyl)-thiazol-2-ylamino]-N-[2-(2-hydroxy-ethoxy)-ethyl]-benzenesulfonamide], for which, in the experiment with HCT-116 cells, the IC50 amounted to 1900 nM and the concentration for an effect of 90% (IC90) was found to be 4200 nM. At CDK4/cyclin D3, the Ki came out at 26 nM. For the same compound, the Ki on CDK2/cyclin A is 5.3 nM.

Consider `Nc1nc(Nc2ccc(S(=O)(=O)NCCCc3ccccc3)cc2)sc1C(=O)c1c(F)cccc1F` [A(32), 4-[4-Amino-5-(2,6-difluoro-benzoyl)-thiazol-2-ylamino]-N-(3-phenyl-propyl)-benzenesulfonamide], for which, in the experiment on HCT-116 cells, the IC50 amounted to 140 nM and the concentration for an effect of 90% (IC90) was found to be 380 nM. Besides, the Ki at CDK4/cyclin D3 is 16 nM. Moreover, the Ki at CDK2/cyclin A is below 5 nM.

Take `CNCCNS(=O)(=O)c1ccc(Nc2nc(N)c(C(=O)c3c(F)cccc3F)s2)cc1` [D(3), 4-[4-Amino-5-(2,6-difluoro-benzoyl)-thiazol-2-ylamino]-N-(2-methylamino-ethyl)-benzenesulfonamide]: in the experiment with HCT-116 cells, the IC50 came to 2900 nM and the IC90 was above 5000 nM. Moreover, at CDK4/cyclin D3, the Ki was determined as 5.7 nM. Further, the Ki on CDK2/cyclin A was 9.4 nM.

As to `CC(C)OCCNS(=O)(=O)c1ccc(Nc2nc(N)c(C(=O)c3c(F)cccc3F)s2)cc1` [Example A(17), 4-[4-Amino-5-(2,6-difluoro-benzoyl)-thiazol-2-ylamino]-N-(2-isopropoxy-ethyl)-benzenesulfonamide], the 50% inhibitory concentration (IC50) in the experiment with HCT-116 cells was 140 nM. Moreover, the 90% effect concentration (IC90) with HCT-116 cells is 450 nM. Also, the Ki on CDK4/cyclin D3 is 14 nM; on CDK2/cyclin A, 2 nM.

With `Nc1nc(Nc2ccc(S(=O)(=O)NCc3cccs3)cc2)sc1C(=O)c1c(F)cccc1F` [A(27), 4-[4-Amino-5-(2,6-difluoro-benzoyl)-thiazol-2-ylamino]-N-thiophen-2-ylmethyl-benzenesulfonamide], in the experiment on HCT-116 cells, the concentration for half-maximal inhibition (IC50) came out at 400 nM and the concentration for an effect of 90% (IC90) is 1000 nM. Moreover, the Ki at CDK4/cyclin D3 stood at 57 nM. In addition, the Ki at CDK2/cyclin A was 4.6 nM.

Take `CSc1ccc(Nc2nc(N)c(C(=O)c3c(Cl)cccc3Cl)s2)cc1` [R(2), 4-Amino-5-(2,6-dichlorobenzoyl)-2-(4-methylthio-phenylamino)-thiazole]: the IC50 in the experiment on HCT-116 cells was 12000 nM. Also, in the experiment on HCT-116 cells, the IC90 is above 25000 nM. Also, the Ki at CDK4/cyclin D3 worked out at 30 nM; on CDK2/cyclin A it was 250 nM.

As for `CS(=O)(=O)c1ccc(Nc2nc(N)c(C(=O)c3c(F)cccc3F)s2)cc1` [Q(1), 1-[4-Amino-2-(4-methanesulfonyl-phenylamino)-thiazol-5-yl]-1-(2,6-difluoro-phenyl)-methanone], the IC50 in the experiment on HCT-116 cells came out at 1300 nM. Further, the IC90 with HCT-116 cells is 3800 nM. Besides, the Ki was 73 nM on CDK4/cyclin D3 and 210 nM at CDK2/cyclin A.

In the case of `Nc1nc(Nc2ccc(S(=O)(=O)NCCNc3ccccc3)cc2)sc1C(=O)c1c(F)cccc1F` [Example A(9), 4-[4-Amino-5-(2,6-difluoro-benzoyl)-thiazol-2-ylamino]-N-(2-phenylamino-ethyl)-benzenesulfonamide], in the experiment with HCT-116 cells, the IC50 was determined as 140 nM and the IC90 is 400 nM. Further, the Ki at CDK4/cyclin D3 is below 5 nM. The Ki on CDK2/cyclin A was below 5 nM.

Consider `CC(C)CCCCNS(=O)(=O)c1ccc(Nc2nc(N)c(C(=O)c3c(F)cccc3F)s2)cc1` [A(37), 4-[4-Amino-5-(2,6-difluoro-benzoyl)-thiazol-2-ylamino]-N-(5-methyl-hexyl)-benzenesulfonamide], for which, in the experiment with HCT-116 cells, the IC50 is 1200 nM and the IC90 is 3800 nM. The Ki on CDK4/cyclin D3 was determined as 35 nM. For the same compound, on CDK2/cyclin A, the Ki was 4.9 nM.

For orientation: IC50 means the concentration that gives 50% inhibition. A word on the IC90: it is the point of the concentration-response curve where the effect stands at 90%.
